Where two headings read alike, the source gives them in different places.
Experiments:
[1] = test system: Magnaporthe grisea (Pyricularia oryzae—PYRIOR); assay: microbe, parasite or virus in culture; format: cell-based; details: Pyricularia oryzae, read-out: PYRIOR in vitro Growth Inhibition
[2] = test system: Rhizoctonia solani (RHIZSO); assay: microbe, parasite or virus in culture; format: cell-based; details: Rhizoctonia solani, read-out: RHIZSO in vitro Growth Inhibition
[3] = test system: Mycosphaerella graminicola (Septoria tritici—SEPTTR); assay: In vitro fungal growth inhibition, Mycosphaerella graminicola (SEPTTR); format: cell-based; details: Zymoseptoria tritici, read-out: SEPTTR in vitro Growth Inhibition
[4] = test system: Stagonospora nodorum (Leptosphaeria nodorum—LEPTNO); assay: In vitro fungal growth inhibition, Stagonospora nodorum (LEPTNO); format: cell-based; details: Leptosphaeria, read-out: LEPTNO in vitro Growth Inhibition
Ustilago maydis (USTIMA) = assay: microbe, parasite or virus in culture; format: cell-based; details: Mycosarcoma maydis, read-out: USTIMA in vitro Growth Inhibition
[5] = test system: Phytophthora infestans (PHYTIN); assay: microbe, parasite or virus in culture; format: cell-based; details: Phytophthora infestans, read-out: PHYTIN in vitro Growth Inhibition
[6] = test system: Phytophthora infestans—PHYTIN; assay: whole plant or invertebrate; format: in vivo; details: for pest or weed control at 100 ppm: Phytophthora, in Solanum lycopersicum, 24 h, read-out: PHYTIN in vivo 1 Day Protectant
[7] = test system: Puccinia recondita—PUCCRT; assay: Brown Rust of Wheat, in vivo whole plant, 24 Hour Protectant; details: Puccinia, read-out: PUCCRT in vivo 1 Day Protectant
Erysiphe graminis—ERYSGT = assay: Powdery Mildew of Wheat, in vivo whole plant, 24 Hour Protectant; details: Erysiphe, read-out: ERYSGT in vivo 1 Day Protectant
Septoria tritici—SEPTTR = assay: Leaf Blotch of Wheat, in vivo whole plant, 24 Hour Protectant; details: for pest or weed control at 100 ppm: Zymoseptoria tritici, 24 h, read-out: SEPTTR in vivo 1 Day Protectant
[8] = test system: Leptosphaeria nodorum—LEPTNO; assay: Glume Blotch of Wheat, in vivo whole plant, 24 Hour Protectant; details: Leptosphaeria, read-out: LEPTNO in vivo 1 Day Protectant
[9] = wheat plants sprayed at 100 ppm, inoculated after 24 hours, control of fungal infection vs untreated plants
[10] = 100 ppm spray, 24 hour protectant, wheat, control of fungal infection vs untreated plants
[11] = 100 ppm spray, wheat, 24 hour protectant, % control of fungal infection vs untreated plants
[12] = 100 ppm spray, wheat, 24 hour protectant, control of fungal infection vs untreated plants

O=C(Oc1cccnc1C(=O)NC1CCC(OC(=O)c2ccccc2)CC1)c1ccccc1 (stereo not drawn) [Compound 567]
inhibition at 25 ppm [1]: < 80% | inhibition at 25 ppm [2]: < 80% | inhibition at 25 ppm ([3]; 25 ppm in the growth medium): < 80% | inhibition at 25 ppm ([4]; 25 ppm in the growth medium): < 80% | inhibition at 25 ppm (Ustilago maydis (USTIMA)): < 80% | inhibition at 25 ppm [5]: < 80% | PHYTIN in vivo 1 Day Protectant ([6]; tomato plants sprayed at 100 ppm, inoculated after 24 hours, control of fungal infection vs untreated plants): + + | pest or weed control at 100 ppm [7, 9]: < 25% | pest or weed control at 100 ppm (Erysiphe graminis—ERYSGT; [9]): < 25% | pest or weed control at 100 ppm (Septoria tritici—SEPTTR; [9]): 25 to 74% | pest or weed control at 100 ppm [8, 9]: 25 to 74% | melting point: 174 to 177 °C

COc1ccnc(C(=O)NC2CC(C)(C)CC(C)(C)C2)c1O [Compound 250]
inhibition at 25 ppm [1]: < 80% | inhibition at 25 ppm [2]: < 80% | inhibition at 25 ppm ([3]; 25 ppm in growth medium): < 80% | inhibition at 25 ppm ([4]; 25 ppm in growth medium): > 80% | inhibition at 25 ppm (Ustilago maydis (USTIMA)): < 80% | inhibition at 25 ppm [5]: > 80% | pest or weed control at 100 ppm [6]: 25 to 74% | pest or weed control at 100 ppm [7, 10]: 25 to 74% | pest or weed control at 100 ppm (Erysiphe graminis—ERYSGT; [10]): < 25% | pest or weed control at 100 ppm (Septoria tritici—SEPTTR; [10]): < 25% | pest or weed control at 100 ppm [8, 10]: 25 to 74% | melting point: 104 to 106 °C

COc1cccc(CNC(=O)c2cccnc2O)c1OC [Compound 516]
inhibition at 25 ppm [1]: < 80% | inhibition at 25 ppm [2]: < 80% | inhibition at 25 ppm ([3]; 25 ppm in the growth medium): < 80% | inhibition at 25 ppm ([4]; 25 ppm in the growth medium): < 80% | inhibition at 25 ppm (Ustilago maydis (USTIMA)): < 80% | inhibition at 25 ppm [5]: < 80% | pest or weed control at 100 ppm [6]: < 25% | pest or weed control at 100 ppm [7, 9]: < 25% | pest or weed control at 100 ppm (Erysiphe graminis—ERYSGT; [9]): < 25% | pest or weed control at 100 ppm (Septoria tritici—SEPTTR; [9]): < 25% | pest or weed control at 100 ppm [8, 9]: < 25% | melting point: 193 to 194 °C

COc1ccnc(C(=O)Nc2ccc(Sc3cccc(C(F)(F)F)c3)cc2)c1OC(C)=O [Compound 711]
inhibition at 25 ppm [1]: > 80% | inhibition at 25 ppm [2]: < 80% | inhibition at 25 ppm ([3]; 25 ppm in growth medium): > 80% | inhibition at 25 ppm ([4]; 25 ppm in growth medium): > 80% | inhibition at 25 ppm (Ustilago maydis (USTIMA)): < 80% | inhibition at 25 ppm [5]: < 80% | pest or weed control at 100 ppm [6]: < 25% | pest or weed control at 100 ppm [7, 11]: < 25% | pest or weed control at 100 ppm (Erysiphe graminis—ERYSGT; [11]): < 25% | SEPTTR in vivo 1 Day Protectant (Septoria tritici—SEPTTR; [11]): + + | pest or weed control at 100 ppm [8, 11]: 25 to 74% | melting point: 134 to 136 °C

Cc1cc(C)c(C(=O)NC2CC(C)(C)CC(C)(C)C2)c(O)n1 [Compound 528]
inhibition at 25 ppm [1]: < 80% | inhibition at 25 ppm [2]: < 80% | inhibition at 25 ppm ([3]; 25 ppm in the growth medium): < 80% | inhibition at 25 ppm ([4]; 25 ppm in the growth medium): < 80% | inhibition at 25 ppm (Ustilago maydis (USTIMA)): < 80% | inhibition at 25 ppm [5]: < 80% | pest or weed control at 100 ppm [6]: < 25% | pest or weed control at 100 ppm [7, 9]: < 25% | pest or weed control at 100 ppm (Erysiphe graminis—ERYSGT; [9]): < 25% | pest or weed control at 100 ppm (Septoria tritici—SEPTTR; [9]): 25 to 74% | pest or weed control at 100 ppm [8, 9]: < 25% | melting point: 286 to 288 °C

COc1ccnc(C(=O)Nc2cccc(C(=O)Nc3ccc(C(F)(F)F)cc3)c2)c1O [Compound 450]
inhibition at 25 ppm [1]: < 80% | inhibition at 25 ppm [2]: < 80% | inhibition at 25 ppm ([3]; 25 ppm in growth medium): < 80% | inhibition at 25 ppm ([4]; 25 ppm in growth medium): < 80% | inhibition at 25 ppm (Ustilago maydis (USTIMA)): < 80% | inhibition at 25 ppm [5]: < 80% | pest or weed control at 100 ppm [6]: < 25% | pest or weed control at 100 ppm [7, 12]: < 25% | pest or weed control at 100 ppm (Erysiphe graminis—ERYSGT; [12]): < 25% | pest or weed control at 100 ppm (Septoria tritici—SEPTTR; [12]): 25 to 74% | pest or weed control at 100 ppm [8, 12]: 25 to 74% | melting point: > 260 °C

COc1ccnc(C(=O)Nc2ccc(C(=O)Oc3ccc(C(F)(F)F)cc3)cc2)c1OC(C)=O [Compound 717]
inhibition at 25 ppm [1]: < 80% | inhibition at 25 ppm [2]: < 80% | inhibition at 25 ppm ([3]; 25 ppm in growth medium): < 80% | inhibition at 25 ppm ([4]; 25 ppm in growth medium): < 80% | inhibition at 25 ppm (Ustilago maydis (USTIMA)): < 80% | inhibition at 25 ppm [5]: < 80% | pest or weed control at 100 ppm [6]: < 25% | pest or weed control at 100 ppm [7, 11]: < 25% | pest or weed control at 100 ppm (Erysiphe graminis—ERYSGT; [11]): < 25% | pest or weed control at 100 ppm (Septoria tritici—SEPTTR; [11]): 25 to 74% | pest or weed control at 100 ppm [8, 11]: 25 to 74% | melting point: 203 to 205 °C
